Paper PMC6469685 (Cell, 2018)

What was measured:
Experiment in all cases: NBD fluorescence titration
Type in all cases: binding
[1] = biological target: T1, Aster-A261–576 (ASTER domain of Aster-A) (Mus musculus, UniProt Q8VEF1)
T1 sequence (Q8VEF1 261-576): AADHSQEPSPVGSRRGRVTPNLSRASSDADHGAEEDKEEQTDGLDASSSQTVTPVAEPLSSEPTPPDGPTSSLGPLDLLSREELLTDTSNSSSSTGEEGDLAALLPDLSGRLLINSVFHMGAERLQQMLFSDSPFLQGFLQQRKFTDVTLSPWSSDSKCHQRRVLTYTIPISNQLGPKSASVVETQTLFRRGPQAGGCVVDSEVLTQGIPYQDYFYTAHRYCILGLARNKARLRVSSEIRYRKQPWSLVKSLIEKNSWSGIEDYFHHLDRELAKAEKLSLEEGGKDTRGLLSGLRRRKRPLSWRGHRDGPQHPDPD

[2] = biological target: Aster-C206–528 (ASTER domain of Aster-C) (Mus musculus, UniProt Q8CI52)
Chain of Aster-C206–528 (ASTER domain of Aster-C) (Q8CI52 206-528): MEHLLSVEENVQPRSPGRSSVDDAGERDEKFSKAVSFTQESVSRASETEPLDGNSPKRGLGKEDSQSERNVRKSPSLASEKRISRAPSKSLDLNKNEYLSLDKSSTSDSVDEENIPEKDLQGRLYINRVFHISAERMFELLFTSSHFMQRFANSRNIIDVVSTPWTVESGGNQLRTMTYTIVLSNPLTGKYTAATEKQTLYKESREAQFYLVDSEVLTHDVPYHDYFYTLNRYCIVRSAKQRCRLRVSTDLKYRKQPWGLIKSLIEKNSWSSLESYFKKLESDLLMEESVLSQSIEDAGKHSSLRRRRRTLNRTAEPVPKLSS

[3] = biological target: T2, StARD1 (StAR; HMBP-3C-STAR.66–285) (Homo sapiens, UniProt P49675); conditions: labelled compound
T2 sequence (P49675 66-285): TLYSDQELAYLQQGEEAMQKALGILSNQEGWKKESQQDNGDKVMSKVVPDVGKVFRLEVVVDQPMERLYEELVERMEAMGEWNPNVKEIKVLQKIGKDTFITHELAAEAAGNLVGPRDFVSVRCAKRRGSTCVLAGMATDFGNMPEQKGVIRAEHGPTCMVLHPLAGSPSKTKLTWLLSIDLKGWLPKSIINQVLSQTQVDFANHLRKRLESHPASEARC

With `C[C@H](CNc1ccc([N+](=O)[O-])c2nonc12)[C@H]1CC[C@H]2[C@@H]3CC=C4C[C@@H](O)CC[C@]4(C)[C@H]3CC[C@]12C` [22-NBD-cholesterol] the Kd [1] was less than 100 nM, the Kd [2] was less than 100 nM and the Kd [3] was “Comparison of NBD-cholesterol binding to Aster-A, Aster-B and StarD1”.
